# Reference: patent US8088791B2, “Antibacterial agents” (Biots Scientific Management Pty Ltd, priority 2006, dated 2012)
# Where two headings read alike, the source gives them in different places.
# Assays:
# [1] = test system: staphylococcal clinical isolates; experiment: Minimum Inhibitory Concentration (MIC) testing, broth microdilution, staphylococcal clinical isolates; type: cell-based; conditions: for MIC: read-out: MIC Activity against clinical isolate
# Procedure: Compounds of this invention were tested for antimicrobial activity by susceptibility testing in liquid media. MICs for compounds against each strain were determined by a broth microdilution method according to the National Committee for Clinical Laboratory Standards (NCCLS) guidelines. (NCCLS. 2000. Methods for dilution antimicrobial susceptibility tests for bacteria that grow aerobically—fifth edition. Approved standard M7-A5. NCCLS, Wayne, Pa.)
# Briefly, test compounds are prepared in 100 μl of 1.6% DMSO solution in multiwell plates. Several bacterial colonies from a freshly streaked plate are transferred to an appropriate rich broth, such as Mueller Hinton. The cell suspension is adjusted to an optical density of 0.09 and further diluted 1:100 with warm 2× broth. This cell suspension is dispensed into the wells containing compound solution so that the final volume is 200 μl. The plates are incubated overnight (16-20 hours) at 37° C. and turbidity is scored by eye and quantified spectrophotometrically. The MIC is defined as the lowest concentration inhibiting visible growth.
# Some of the Examples were also tested for activity against staphylococcal clinical isolates. […] Activities were again scored as ‘A’ if the MIC was ≦8 micrograms/ml, ‘B’ if the MIC was 16 to 64 micrograms/ml and ‘C’ if the MIC was greater than 64 micrograms/ml.
# Staphylococcus aureus = experiment: mouse Staphylococcus aureus septicaemia model of infection; type: in vivo; conditions: survival at day 7 of infected mice; single intraperitoneal dose of 100 mg/kg at 1 hour after intraperitoneal inoculation with a lethal dose of Staphylococcus aureus
# Procedure: Some of the Examples were also tested for activity in a mouse Staphylococcus aureus septicaemia model of infection.
# [2] = test system: Staphylococcus aureus ATCC29213; experiment: Minimum Inhibitory Concentration (MIC) testing, broth microdilution, Staphylococcus aureus; type: cell-based; conditions: Staphylococcus aureus ATCC29213; read-out: Staphylococcus aureus MICs Activity
# In short: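 Broth microdilution per NCCLS M7-A5 in Mueller Hinton broth, with compound in 1.6% DMSO and inoculum at OD 0.09 diluted 1:100. Plates incubated 16–20 h at 37°C. MIC is the lowest concentration with no visible growth; scored A ≤8, B 16–64, C >64 μg/ml.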
# Bacillus subtilis 168CA = experiment: Minimum Inhibitory Concentration (MIC) testing, broth microdilution, Bacillus subtilis; type: cell-based; conditions: Bacillus subtilis 168CA; read-out: Bacillus subtilis MICs Activity
# In short: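 Broth microdilution followed NCCLS M7-A5, in rich broth such as Mueller Hinton, inoculum at OD 0.09 diluted 1:100, compounds in 1.6% DMSO before inoculum. After 16–20 h at 37 °C, MIC was the lowest concentration without visible growth. Score A: ≦8 μg/ml, B: 16–64 μg/ml, C: >64 μg/ml.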
# [3] = test system: various bacterial species; experiment: Minimum Inhibitory Concentration (MIC) testing, broth microdilution, other bacterial species; type: cell-based
# In short: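 Broth microdilution per NCCLS M7-A5 in rich broth (e.g. Mueller Hinton), inoculum from OD 0.09 suspension diluted 1:100 in 2× broth. Incubation 16-20 hours at 37° C; turbidity scored visually and spectrophotometrically. MIC is the lowest concentration inhibiting visible growth, binned A ≦8, B 16-64, C >64 micrograms/ml.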
compound,measurement,setting,value
"NC(=O)c1c(F)ccc(OCc2nc3cc(Cl)ccc3s2)c1F [Example 218, 3-[(5-Chloro-1,3-benzothiazol-2-yl)methoxy]-2,6-difluorobenzenecarboxamide]",MIC Activity against clinical isolate,"[1]; S. aureus No. 753, Oxacillin S, Hospital",A (‘A’ if the MIC was ≦8 micrograms/ml)
same,MIC Activity against clinical isolate,"[1]; S. aureus No. 757, Oxacillin R, Tet-R, MI-R, Hospital (tetM)",A (‘A’ if the MIC was ≦8 micrograms/ml)
same,MIC Activity against clinical isolate,"[1]; S. aureus No. 1134, Oxacillin S, Hospital",A (‘A’ if the MIC was ≦8 micrograms/ml)
same,MIC Activity against clinical isolate,"[1]; S. aureus No. 1135, Oxacillin R, Van-S, LZD-S, Hospital",A (‘A’ if the MIC was ≦8 micrograms/ml)
same,MIC Activity against clinical isolate,"[1]; S. aureus No. 1651, Oxacillin R, Van-S, LZD-R, Hospital (G2576T, G)",A (‘A’ if the MIC was ≦8 micrograms/ml)
same,MIC Activity against clinical isolate,"[1]; S. aureus No. 1652, Oxacillin R, Van-S, LZD-R, Hospital (T2500T, A)",A (‘A’ if the MIC was ≦8 micrograms/ml)
same,MIC Activity against clinical isolate,"[1]; S. aureus No. 1662, Oxacillin S, Hospital",A (‘A’ if the MIC was ≦8 micrograms/ml)
same,MIC Activity against clinical isolate,"[1]; S. aureus No. 1725, Oxacillin R, Van-S, LZD-R, Hospital (G2576T)",A (‘A’ if the MIC was ≦8 micrograms/ml)
same,MIC Activity against clinical isolate,"[1]; S. aureus No. 1729, Oxacillin R, Tet-R, MI-R, Hospital",A (‘A’ if the MIC was ≦8 micrograms/ml)
same,MIC Activity against clinical isolate,"[1]; S. aureus No. 2011, Oxacillin R, Tet-R, MI-S, Hospital (tetK)",A (‘A’ if the MIC was ≦8 micrograms/ml)
same,MIC Activity against clinical isolate,"[1]; S. aureus No. 2012, Oxacillin R, Van-I, LZD-S, Hospital",A (‘A’ if the MIC was ≦8 micrograms/ml)
same,MIC Activity against clinical isolate,"[1]; S. aureus No. 2018, Oxacillin R, Van-I, LZD-S, Hospital",A (‘A’ if the MIC was ≦8 micrograms/ml)
same,MIC Activity against clinical isolate,"[1]; S. aureus No. 2142, Oxacillin R, CC-S, SXT-S, Community",A (‘A’ if the MIC was ≦8 micrograms/ml)
same,MIC Activity against clinical isolate,"[1]; S. aureus No. 2143, Oxacillin R, Rif-R, Community",A (‘A’ if the MIC was ≦8 micrograms/ml)
same,MIC Activity against clinical isolate,"[1]; S. aureus No. 2147, Oxacillin R, CC-S, SXT-S, Community",A (‘A’ if the MIC was ≦8 micrograms/ml)
same,MIC Activity against clinical isolate,"[1]; S. aureus No. 2149, Oxacillin R, CC-R (iMLS), SXT-S, Community",A (‘A’ if the MIC was ≦8 micrograms/ml)
same,MIC Activity against clinical isolate,"[1]; S. aureus No. 2150, Oxacillin R, CC-R, SXT-S, Community",A (‘A’ if the MIC was ≦8 micrograms/ml)
same,MIC Activity against clinical isolate,"[1]; S. aureus No. 2158, Oxacillin R, CC-R, Doxy-I, Community",A (‘A’ if the MIC was ≦8 micrograms/ml)
same,MIC Activity against clinical isolate,"[1]; S. aureus No. 2175, Oxacillin R, TMP-R, Community",A (‘A’ if the MIC was ≦8 micrograms/ml)
same,MIC Activity against clinical isolate,"[1]; S. epidermidis No. 831, Oxacillin R",A (‘A’ if the MIC was ≦8 micrograms/ml)
same,MIC Activity against clinical isolate,"[1]; S. epidermidis No. 1139, Oxacillin S",A (‘A’ if the MIC was ≦8 micrograms/ml)
same,MIC Activity against clinical isolate,"[1]; S. epidermidis No. 1142, Oxacillin R",A (‘A’ if the MIC was ≦8 micrograms/ml)
same,MIC Activity against clinical isolate,"[1]; S. epidermidis No. 1144, Oxacillin R",A (‘A’ if the MIC was ≦8 micrograms/ml)
same,MIC,"[1]; Staphylococcus aureus, ATCC29213, S. aureus No. 0100, Oxacillin S, ATCC 29213",< 8 µg/mL
same,MIC,"[1]; Staphylococcus aureus, S. aureus No. 1015, Oxacillin R, Van-S, LZD-S, Hospital",< 8 µg/mL
same,MIC,"[1]; Staphylococcus epidermidis, S. epidermidis No. 835, Oxacillin S",< 8 µg/mL
same,Percent survival,Staphylococcus aureus,100%
same,MIC,[2],< 8 µg/mL
same,MIC,Bacillus subtilis 168CA,< 8 µg/mL
same,MIC,"[3]; Bacillus cereus, ATCC14579, read-out: MIC Activity Bacillus cereus ATCC 14579",< 8 µg/mL
same,MIC,"[3]; Staphylococcus epidermidis, ATCC12228, read-out: MIC Activity Staphylococcus epidermidis ATCC 12228",< 8 µg/mL
same,MIC,"[3]; Staphylococcus haemolyticus, ATCC29970, read-out: MIC Activity Staphylococcus haemolyticus ATCC 29970",< 8 µg/mL
same,MIC,"[3]; Staphylococcus saprophyticus, ATCC15305, read-out: MIC Activity Staphylococcus saprophyticus ATCC 15305",< 8 µg/mL
